Patent US20060281673A1, “Novel peptide inhibitor of hiv fusion that disrupts the internal trimeric coiled-coil of gp41” (priority 2003, published 2006)
Several values for one entry are separate records, joined by “and”; a condition that tells them apart may be missing. Equal values may be shown once. Entries after “also recorded” stand apart in the source; their conditions may differ.

Columns and labels:
[1] = target: T1, C34 peptide derived from the C-terminal region of gp41 (residues 628-661) (Human immunodeficiency virus type 1 group M subtype B, UniProt P04578); assay: Interaction with C34 by analytical ultracentrifugation or CD; format: binding, HIV-1
T1 construct: the C34 peptide comprises residues 628-661 of the C-region of HIV-1 gp41; purchased Commonwealth Biotechnologies (Richmond, Va.); host or cells: solid-phase synthesis
Method: (§1) Circular Dichroism—CD spectra of peptides (at a concentration corresponding to 0.7-0.8 A280) were recorded at 25° C. on a JASCO J-720 spectropolarimeter using a 0.05-cm path length cell.
Sedimentation Equilibrium—Sedimentation equilibrium experiments were conducted at 20.0° C. and three different rotor speeds (16,000, 20,000, and 24,000) on a Beckman Optima XL-A analytical ultracentrifuge. Peptide samples were prepared in 50 mM sodium formate buffer (pH=3) and loaded into the ultracentrifuge cells at nominal loading concentrations of ˜0.2 and 0.7-0.8 A280. Data were analyzed in terms of a single ideal solute to obtain the buoyant molecular mass, M(1−νρ), using the Optima XL-A data analysis software (Beckman). […] J. Biochem. 157:169-180)).

[2] = Circular dichroism, secondary structure; format: physicochemical; details: CD at 25° C., program CDNN
Method: as §1

[3] = Sedimentation equilibrium (analytical ultracentrifugation), oligomeric state; format: physicochemical; details: 50 mM sodium formate pH 3, 20.0° C.
Source text: […]. J. Biochem. 157:169-180)).

[4] = target: pre-hairpin intermediate of gp41 (Human immunodeficiency virus type 1 group M subtype B, UniProt P04578); parameters: species or system HIV-1
[5] = tested on: HIV Env-mediated cell fusion; details: read-out: fails to inhibit fusion even at concentrations as high as

T1 sequence (P04578 628-661): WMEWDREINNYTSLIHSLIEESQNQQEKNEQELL
Sequence of pre-hairpin intermediate of gp41 (P04578 512-856): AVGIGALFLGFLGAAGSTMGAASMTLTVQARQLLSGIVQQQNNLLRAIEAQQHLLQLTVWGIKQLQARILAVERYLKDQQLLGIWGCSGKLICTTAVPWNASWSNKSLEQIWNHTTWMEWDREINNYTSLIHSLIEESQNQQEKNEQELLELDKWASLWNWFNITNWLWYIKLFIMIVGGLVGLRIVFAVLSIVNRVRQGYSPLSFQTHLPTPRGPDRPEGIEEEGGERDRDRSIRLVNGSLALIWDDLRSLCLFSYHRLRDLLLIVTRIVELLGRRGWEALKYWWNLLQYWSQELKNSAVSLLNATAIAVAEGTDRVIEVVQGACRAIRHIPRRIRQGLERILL

Substance | interaction with C34 [1] | helical content [2] | oligomeric state in solution [3] | optimized value of β (heterotrimerization with gp41 relative to Kref^trimer) [4] | IC50 [5]
Ac-SGIDQEQNNLTRLIEAQIHELQLTQWKIKQLLARIL-NH2 [N36^Mut(e,g)] | does not interact with C34; also recorded: No evidence of interaction | ~80% | monodisperse, helical trimer | 2.97 and 5.76 | –
SGIVQQLNNQLRAEEANQHLEQLSVWGSKQNQARRL; peptide derived from N36 with nine substitutions at positions a and d of the helical wheel (SGIVQQLNNQLRAEEANQHLEQLSVWGSKQNQARRL) [N36^Mut(a,d)] | does not interact with the C34 peptide; also recorded: No evidence of interaction | ~20% | monomeric; also recorded: monomer | – | > 100 µM
